Test systems include SF-539 CNS; K-562 leukemia; PC-3 prostate; NCI/ADR-RES ovarian; SR leukemia; HOP-62 NSCLC; HCT-15 colon; RXF 393 renal; MDA-MB-231 breast; M14 melanoma.
Assay in all cases: NCI anticancer screen, dose series, 48 h

“And” between values parts separate entries of the source, which are not always exact repeats. Equal values may be shown once.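 Grown in 96-well plates, cells were treated for 48 hours with each compound at five concentrations. Insufficient inhibition: endpoint recorded as highest concentration tested. GI50 marks 50% less growth. TGI denotes the concentration required for complete inhibition of growth.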

For the molecule `COc1ccc(/C=N\NC(=O)c2ccc3nc(-c4ccc(Cl)cc4)[nH]c3c2)cc1`, the GI50 in the test with SF-539 CNS was 1.73 µM; in the test with K-562 leukemia, 2.69 µM; with PC-3 prostate it was 1.66 µM; in the test on NCI/ADR-RES ovarian it was 7.81 µM; in the test on SR leukemia, 2.87 µM; in the test on HOP-62 NSCLC, 1.88 µM. Besides, the GI50 is 3.24 µM with HCT-15 colon, 1.86 µM with RXF 393 renal, 2.42 µM with MDA-MB-231 breast and 2.41 µM with M14 melanoma. For the same molecule, the TGI in the test with SF-539 CNS is 3.46 µM; in the test with K-562 leukemia, 11.2 µM; with PC-3 prostate, 3.76 µM; in the test on NCI/ADR-RES ovarian it was more than 100 µM; in the test with SR leukemia, 15.4 µM; with HOP-62 NSCLC, 6.37 µM. The TGI came out at 12.8 µM in the test on HCT-15 colon, 3.8 µM in the test on RXF 393 renal, 5.45 µM in the test with MDA-MB-231 breast and 7.76 µM in the test with M14 melanoma.
With `CN1CCN(c2ccc3nc(-c4[nH]ncc4Nc4ncnc5c4OCCCN5)[nH]c3c2)CC1`, the GI50 is less than 0.01 µM in the test on SF-539 CNS; less than 0.01 µM in the test on K-562 leukemia; less than 0.01 µM in the test on PC-3 prostate; 0.28 µM in the test with NCI/ADR-RES ovarian; less than 0.01 µM in the test on SR leukemia; 0.0101 µM in the test with HOP-62 NSCLC. The GI50 in the test on HCT-15 colon is 0.0259 µM; in the test with RXF 393 renal it was less than 0.01 µM; in the test on MDA-MB-231 breast, less than 0.01 µM; in the test with M14 melanoma, less than 0.0115 µM. In addition, the TGI with SF-539 CNS is 0.0214 µM; in the test with K-562 leukemia it was 29.8 µM; in the test on PC-3 prostate, 0.0671 µM; in the test with NCI/ADR-RES ovarian it was 2.89 µM; in the test with HOP-62 NSCLC, 0.062 µM; in the test with HCT-15 colon it was 0.63 µM. The TGI in the test on MDA-MB-231 breast amounted to 0.0423 µM; in the test with M14 melanoma, 0.0706 µM.
Take `CC#CC#C/C=C1\C=CC2(OC=CC2OC(C)=O)O1` (stereo not given): the TGI in the test with SF-539 CNS is 76.9 µM and 48.8 µM; with K-562 leukemia it was > 100 µM and 54.8 µM; in the test with PC-3 prostate, more than 100 µM; in the test with NCI/ADR-RES ovarian it was more than 100 µM; with SR leukemia it was 89.6 µM and > 94.5 µM; in the test with HOP-62 NSCLC, more than 100 µM. The TGI in the test with HCT-15 colon was 30 µM and 27.8 µM; with RXF 393 renal, 26.1 µM; in the test with MDA-MB-231 breast, 41.9 µM; in the test with M14 melanoma it was > 100 µM and 37.9 µM. Besides, in the test on HCT-15 colon, the GI50 was 16.4 µM and 4.78 µM.
On to `O=C1C(Br)=C(Br)C(=O)c2ccccc21`, for which the GI50 is 19.4 µM and 2.82 µM with SF-539 CNS; 16.2 µM and 5.85 µM in the test with RXF 393 renal. Further, the TGI in the test on SF-539 CNS was 36 µM and 10.6 µM; in the test with K-562 leukemia it was more than 100 µM; with PC-3 prostate, 31.7 µM; with NCI/ADR-RES ovarian, 66.8 µM; in the test on SR leukemia, 9.54 µM; in the test with HOP-62 NSCLC it was 37.6 µM and 44.4 µM. For the same molecule, the TGI in the test on HCT-15 colon is 31.4 µM and 45.1 µM; in the test with RXF 393 renal, 29.9 µM and 15.6 µM; in the test on MDA-MB-231 breast it was 11.6 µM; with M14 melanoma, 28.4 µM and 22.6 µM.
As for `O=C1CCSC(=S)N1c1ccc(Br)c(Cl)c1`, the TGI in the test with SF-539 CNS, with K-562 leukemia, in the test on PC-3 prostate, with NCI/ADR-RES ovarian, in the test on SR leukemia and with HOP-62 NSCLC was more than 100 µM each time. The TGI in the test with HCT-15 colon was 40.2 µM; with RXF 393 renal it was 50.8 µM; in the test on MDA-MB-231 breast, 70 µM; with M14 melanoma, more than 100 µM.
With `O=C(Nc1ccc(Oc2ccc(NC(=O)Nc3ccc([N+](=O)[O-])cc3)cc2)cc1)Nc1ccc([N+](=O)[O-])cc1`, the GI50 in the test with SF-539 CNS is 3.07 µM; in the test on K-562 leukemia it was 0.826 µM; in the test with PC-3 prostate, 1.04 µM; in the test with NCI/ADR-RES ovarian, 3.88 µM; with SR leukemia, 1.35 µM; in the test with HOP-62 NSCLC it was 2.64 µM. In addition, the GI50 in the test on HCT-15 colon is 1.91 µM; with RXF 393 renal, 2.94 µM; in the test with MDA-MB-231 breast, 1.65 µM; in the test with M14 melanoma it was 2.37 µM. In addition, the TGI in the test with SF-539 CNS was 20.6 µM; in the test on PC-3 prostate, more than 22.8 µM; with NCI/ADR-RES ovarian, more than 91.3 µM; in the test with SR leukemia, 4.87 µM; with HOP-62 NSCLC, 7.96 µM; in the test with HCT-15 colon, 13.7 µM. Further, the figures for the TGI in the test on RXF 393 renal, with MDA-MB-231 breast and in the test with M14 melanoma were more than 24.4 µM, 7.2 µM and 11.7 µM, respectively.
Turning to `CCCCCCCCNC(C)C(O)c1ccc(SC(C)C)cc1` (stereo not given), the GI50 in the test with SF-539 CNS is 1.9 µM; with K-562 leukemia, 1.88 µM; in the test on PC-3 prostate, 1.58 µM; in the test on NCI/ADR-RES ovarian, 1.57 µM; in the test with SR leukemia, 1.99 µM; with HOP-62 NSCLC, 1.53 µM. The GI50 in the test with HCT-15 colon was 1.7 µM; in the test with RXF 393 renal, 1.45 µM; in the test with MDA-MB-231 breast, 1.8 µM; in the test on M14 melanoma it was 1.72 µM. Moreover, the TGI came to 3.4 µM in the test on SF-539 CNS; 3.8 µM with K-562 leukemia; 3.02 µM in the test with PC-3 prostate; 3.17 µM in the test on NCI/ADR-RES ovarian; 5.71 µM in the test with SR leukemia; 2.87 µM in the test with HOP-62 NSCLC. Also, the TGI with HCT-15 colon stood at 3.29 µM; with RXF 393 renal it was 2.81 µM; with MDA-MB-231 breast, 3.31 µM; in the test on M14 melanoma, 3.26 µM.
`O=C1NC(=O)[C@@H](c2c[nH]c3ccccc23)[C@@H]1c1c[nH]c2ccccc12`: the GI50 with SF-539 CNS, with K-562 leukemia, with PC-3 prostate, in the test with NCI/ADR-RES ovarian, with SR leukemia and with HOP-62 NSCLC was more than 25 µM each time. Besides, the GI50 in the test with HCT-15 colon, with RXF 393 renal, in the test with MDA-MB-231 breast and in the test on M14 melanoma was more than 25 µM in each case. The TGI in the test with SF-539 CNS, in the test on K-562 leukemia, in the test on PC-3 prostate, in the test on NCI/ADR-RES ovarian, with SR leukemia and in the test with HOP-62 NSCLC was more than 25 µM each time. Besides, the TGI with HCT-15 colon, in the test with RXF 393 renal, in the test with MDA-MB-231 breast and with M14 melanoma was more than 25 µM each time.

The values above are taken from PubChem BioAssay (NCI).
